Source: US20080064667A1, “OXAZOLE DERIVATIVES OF TETRACYCLINES” (Wyeth, priority 2003, published 2008)
Converted amounts (≈) assume the structure as drawn.

Columns and labels:
Assay in all cases: MIC, broth microdilution (NCCLS)
Type in all cases: cell-based
[1] = system: C. albicans GC3066 ATCC (Control); details: Candida albicans, Mueller-Hinton II broth, 18-22 hours at 35° C.
E. coli GC1073 (tet(B)) = details: Escherichia coli
In short: (§1)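 Serial antibiotic dilutions in Mueller-Hinton II broth were inoculated to 10^5 CFU/ml. Plates were incubated 18-22 hours at 35° C. in ambient air.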

[2] = system: E. coli GC2203 (ATCC Control); details: Escherichia coli, Mueller-Hinton II broth, 18-22 hours at 35° C.
In short: as §1

E. coli GC2270 (tet(M)) = details: Escherichia coli
In short: as §1

[3] = system: E. coli GC4559 (parent GC4560); details: Escherichia coli, Mueller-Hinton II broth, 18-22 hours at 35° C.
In short: as §1

[4] = system: E. coli GC4560 (IMP mutant); details: Escherichia coli
In short: as §1

[5] = system: E. faecalis GC2242 (Van-resistant); details: Enterococcus faecalis, Mueller-Hinton II broth, 18-22 hours at 35° C.
In short: as §1

[6] = system: E. faecalis GC4555 (ATCC Control); details: Enterococcus faecalis, Mueller-Hinton II broth, 18-22 hours at 35° C.
In short: as §1

[7] = system: H. influenzae<> GC6896 (ATCC Control); details: Haemophilus influenzae, Mueller-Hinton II broth, 18-22 hours at 35° C.
In short: as §1

[8] = system: M. catarrhalis* GC6907 (Clinical); details: Moraxella catarrhalis, Mueller-Hinton II broth, 18-22 hours at 35° C.
In short: as §1

[9] = system: S. aureus GC1079 (tet(K)); details: Staphylococcus aureus, Mueller-Hinton II broth, 18-22 hours at 35° C.
In short: as §1

[10] = system: S. aureus GC1131 (Clinical); details: Staphylococcus aureus, Mueller-Hinton II broth, 18-22 hours at 35° C.
In short: as §1

[11] = system: S. aureus GC2216 (ATCC Control); details: Staphylococcus aureus, Mueller-Hinton II broth, 18-22 hours at 35° C.
In short: as §1

[12] = system: S. aureus GC4536 (Smith MP -In Vivo); details: Staphylococcus aureus, Mueller-Hinton II broth, 18-22 hours at 35° C.
In short: as §1

[13] = system: S. aureus GC6466 (tet(M)); details: Staphylococcus aureus, Mueller-Hinton II broth, 18-22 hours at 35° C.
In short: as §1

[14] = system: S. aureus GC6467 (tet(M) + (K)); details: Staphylococcus aureus
In short: as §1

[15] = system: S. pneumoniae* GC1894 (Clinical); details: Streptococcus pneumoniae, Mueller-Hinton II broth, 18-22 hours at 35° C.
In short: as §1

[16] = system: S. pneumoniae* GC4465 (Clinical); details: Streptococcus pneumoniae, Mueller-Hinton II broth, 18-22 hours at 35° C.
In short: as §1

[17] = system: S. pyogenes* GC4563 (Clinical); details: Streptococcus pyogenes, Mueller-Hinton II broth, 18-22 hours at 35° C.
In short: as §1

[18] = system: E. faecalis GC2267 (tet(L) + (M) + (S)); details: Enterococcus faecalis
In short: as §1

CN(C)c1cc2nc(-c3ccc4c(c3)OCO4)oc2c2c1C[C@H]1C[C@H]3[C@H](N(C)C)C(O)=C(C(N)=O)C(=O)[C@@]3(O)C(O)=C1C2=O [Example 14, (6aR,7aS,8S,11aS)-2-(1,3-benzodioxol-5-yl)-5,8-bis(dimethylamino)-9,11a,12-trihydroxy-11,13-dioxo-6,6a,7,7a,8,11,11a,13-octahydrotetraceno[2,1-d][1,3]oxazole-10-carboxamide]
MIC [1]: > 64 mg/L
MIC (E. coli GC1073 (tet(B))): > 64 mg/L
MIC [2]: > 64 mg/L
MIC (E. coli GC2270 (tet(M))): > 64 mg/L
MIC [3]: > 64 mg/L
MIC [4]: 16 mg/L (≈ 26.6 µM)
MIC [5]: 4 mg/L (≈ 6.64 µM)
MIC [6]: 8 mg/L (≈ 13.3 µM)
MIC [7]: > 64 mg/L
MIC [8]: 4 mg/L (≈ 6.64 µM)
MIC [9]: 4 mg/L (≈ 6.64 µM)
MIC [10]: 4 mg/L (≈ 6.64 µM)
MIC [11]: 4 mg/L (≈ 6.64 µM)
MIC [12]: 4 mg/L (≈ 6.64 µM)
MIC [13]: 4 mg/L (≈ 6.64 µM)
MIC [14]: 8 mg/L (≈ 13.3 µM)
MIC [15]: 16 mg/L (≈ 26.6 µM)
MIC [16]: 16 mg/L (≈ 26.6 µM)
MIC [17]: 16 mg/L (≈ 26.6 µM)

CCCCCCOc1ccc(-c2nc3cc(N(C)C)c4c(c3o2)C(=O)C2=C(O)[C@]3(O)C(=O)C(C(N)=O)=C(O)[C@@H](N(C)C)[C@@H]3C[C@@H]2C4)cc1 [Example 32, (6aR,7aS,8S,11aS)-5,8-bis(dimethylamino)-2-[4-(hexyloxy)phenyl]-9,11a,12-trihydroxy-11,13-dioxo-6,6a,7,7a,8,11,11a,13-octahydrotetraceno[2,1-d][1,3]oxazole-10-carboxamide]
MIC [1]: > 64 mg/L
MIC (E. coli GC1073 (tet(B))): > 64 mg/L
MIC [2]: > 64 mg/L
MIC (E. coli GC2270 (tet(M))): > 64 mg/L
MIC [3]: > 64 mg/L
MIC [4]: > 64 mg/L
MIC [5]: 64 mg/L (≈ 97.2 µM)
MIC [18]: > 64 mg/L
MIC [6]: 64 mg/L (≈ 97.2 µM)
MIC [7]: > 64 mg/L
MIC [8]: 32 mg/L (≈ 48.6 µM)
MIC [9]: > 64 mg/L
MIC [10]: > 64 mg/L
MIC [11]: > 64 mg/L
MIC [12]: > 64 mg/L
MIC [13]: > 64 mg/L
MIC [14]: > 64 mg/L
MIC [15]: 8 mg/L (≈ 12.1 µM)
MIC [16]: 16 mg/L (≈ 24.3 µM)
MIC [17]: 16 mg/L (≈ 24.3 µM)

CN(C)c1cc2nc(CCl)oc2c2c1C[C@H]1C[C@H]3[C@H](N(C)C)C(O)=C(C(N)=O)C(=O)[C@@]3(O)C(O)=C1C2=O [Example 35, (6aR,7aS,8S,11aS)-2-(chloromethyl)-5,8-bis(dimethylamino)-9,11a,12-trihydroxy-11,13-dioxo-6,6a,7,7a,8,11,11a,13-octahydrotetraceno[2,1-d][1,3]oxazole-10-carboxamide]
MIC [1]: > 64 mg/L
MIC (E. coli GC1073 (tet(B))): 32 mg/L (≈ 60.3 µM)
MIC [2]: 4 mg/L (≈ 7.53 µM)
MIC (E. coli GC2270 (tet(M))): 16 mg/L (≈ 30.1 µM)
MIC [3]: 8 mg/L (≈ 15.1 µM)
MIC [4]: 0.5 mg/L (≈ 0.942 µM)
MIC [5]: 1 mg/L (≈ 1.88 µM)
MIC [18]: 4 mg/L (≈ 7.53 µM)
MIC [6]: 1 mg/L (≈ 1.88 µM)
MIC [7]: 2 mg/L (≈ 3.77 µM)
MIC [8]: 0.5 mg/L (≈ 0.942 µM)
MIC [9]: 4 mg/L (≈ 7.53 µM)
MIC [10]: 0.5 mg/L (≈ 0.942 µM)
MIC [11]: 0.5 mg/L (≈ 0.942 µM)
MIC [12]: 1 mg/L (≈ 1.88 µM)
MIC [13]: 1 mg/L (≈ 1.88 µM)
MIC [14]: 8 mg/L (≈ 15.1 µM)
MIC [15]: 0.25 mg/L (≈ 0.471 µM)
MIC [16]: 0.5 mg/L (≈ 0.942 µM)
MIC [17]: 0.25 mg/L (≈ 0.471 µM)

CN(C)c1cc2nc(CN3CCCC3)oc2c2c1C[C@H]1C[C@H]3[C@H](N(C)C)C(O)=C(C(N)=O)C(=O)[C@@]3(O)C(O)=C1C2=O [Example 37, (6aR,7aS,8S,11aS)-5,8-bis(dimethylamino)-9,11a,12-trihydroxy-11,13-dioxo-2-(pyrrolidin-1-ylmethyl)-6,6a,7,7a,8,11,11a,13-octahydrotetraceno[2,1-d][1,3]oxazole-10-carboxamide]
MIC [1]: > 64 mg/L
MIC [2]: 2 mg/L (≈ 3.54 µM)
MIC (E. coli GC2270 (tet(M))): 4 mg/L (≈ 7.07 µM)
MIC [3]: 2 mg/L (≈ 3.54 µM)
MIC [4]: 1 mg/L (≈ 1.77 µM)
MIC [5]: 2 mg/L (≈ 3.54 µM)
MIC [18]: 4 mg/L (≈ 7.07 µM)
MIC [6]: 2 mg/L (≈ 3.54 µM)
MIC [7]: 4 mg/L (≈ 7.07 µM)
MIC [8]: 1 mg/L (≈ 1.77 µM)
MIC [9]: 4 mg/L (≈ 7.07 µM)
MIC [10]: 4 mg/L (≈ 7.07 µM)
MIC [11]: 4 mg/L (≈ 7.07 µM)
MIC [12]: 4 mg/L (≈ 7.07 µM)
MIC [13]: 4 mg/L (≈ 7.07 µM)
MIC [14]: 8 mg/L (≈ 14.1 µM)
MIC [15]: 1 mg/L (≈ 1.77 µM)
MIC [16]: 1 mg/L (≈ 1.77 µM)
MIC [17]: 1 mg/L (≈ 1.77 µM)

CCCNCc1nc2cc(N(C)C)c3c(c2o1)C(=O)C1=C(O)[C@]2(O)C(=O)C(C(N)=O)=C(O)[C@@H](N(C)C)[C@@H]2C[C@@H]1C3 [Example 38, (6aR,7aS,8S,11aS)-5,8-bis(dimethylamino)-9,11a,12-trihydroxy-11,13-dioxo-2-[(propylamino)methyl]-6,6a,7,7a,8,11,11a,13-octahydrotetraceno[2,1-d][1,3]oxazole-10-carboxamide]
MIC [1]: > 64 mg/L
MIC [2]: 32 mg/L (≈ 57.8 µM)
MIC [3]: 32 mg/L (≈ 57.8 µM)
MIC [4]: 8 mg/L (≈ 14.5 µM)
MIC [5]: 16 mg/L (≈ 28.9 µM)
MIC [18]: 64 mg/L (≈ 116 µM)
MIC [6]: 16 mg/L (≈ 28.9 µM)
MIC [7]: 64 mg/L (≈ 116 µM)
MIC [8]: 4 mg/L (≈ 7.23 µM)
MIC [9]: 64 mg/L (≈ 116 µM)
MIC [10]: 32 mg/L (≈ 57.8 µM)
MIC [11]: 32 mg/L (≈ 57.8 µM)
MIC [12]: 16 mg/L (≈ 28.9 µM)
MIC [13]: 32 mg/L (≈ 57.8 µM)
MIC [14]: > 64 mg/L
MIC [15]: 4 mg/L (≈ 7.23 µM)
MIC [16]: 4 mg/L (≈ 7.23 µM)
MIC [17]: 4 mg/L (≈ 7.23 µM)

CCCCNCc1nc2cc(N(C)C)c3c(c2o1)C(=O)C1=C(O)[C@]2(O)C(=O)C(C(N)=O)=C(O)[C@@H](N(C)C)[C@@H]2C[C@@H]1C3 [Example 39, (6aR,7aS,8S,11aS)-2-[(butylamino)methyl]-5,8-bis(dimethylamino)-9,11a,12-trihydroxy-11,13-dioxo-6,6a,7,7a,8,11,11a,13-octahydrotetraceno[2,1-d][1,3]oxazole-10-carboxamide]
MIC [1]: > 64 mg/L
MIC [2]: 32 mg/L (≈ 56.4 µM)
MIC [3]: 32 mg/L (≈ 56.4 µM)
MIC [4]: 8 mg/L (≈ 14.1 µM)
MIC [5]: 32 mg/L (≈ 56.4 µM)
MIC [18]: 64 mg/L (≈ 113 µM)
MIC [6]: 32 mg/L (≈ 56.4 µM)
MIC [7]: 64 mg/L (≈ 113 µM)
MIC [8]: 8 mg/L (≈ 14.1 µM)
MIC [9]: 64 mg/L (≈ 113 µM)
MIC [10]: 32 mg/L (≈ 56.4 µM)
MIC [11]: 32 mg/L (≈ 56.4 µM)
MIC [12]: 32 mg/L (≈ 56.4 µM)
MIC [13]: 32 mg/L (≈ 56.4 µM)
MIC [14]: > 64 mg/L
MIC [15]: 8 mg/L (≈ 14.1 µM)
MIC [16]: 8 mg/L (≈ 14.1 µM)
MIC [17]: 8 mg/L (≈ 14.1 µM)
